The values that follow come from publication PMC12040169 (PLOS Biology, 2025).

A short description of the data set: in vitro. The settings on record: human, hela cells, % viability.
`Cc1ccc2c(c1)c(NC(=O)OC(C)C)nn2Cc1cc2c(cc1Cl)OCO2` [CBK048652]: the viability at 28.5 h, 10 µM stood at 99.9%.

`C#CCNC(=O)c1nn(Cc2ccc(CN3C(=O)CCC3=O)cc2)c2ccc(OC)cc12` [CBK048668]: the viability at 28.5 h, 10 µM worked out at 86.2%.

In the case of `CS(=O)(=O)Nc1nccnc1N1CCN(C(=O)c2ccno2)CC1` [CBK048861], the viability at 28.5 h, 10 µM came out at 107%.

With `CNC(=S)N1CCN(c2nccnc2NS(=O)(=O)C2CC2)CC1` [CBK048905], the viability at 28.5 h, 10 µM came to 96.2%.

For the compound `COc1ccc(OC)c(-c2cc(C(=O)O)c(C)o2)c1` [CBK049343], the viability at 28.5 h, 10 µM came to 97.9%.

For the compound `COCc1ccc(-c2nccnc2NS(=O)(=O)c2c(C)noc2C)cc1` [CBK049656], the viability at 28.5 h, 10 µM turned out to be 122%.

For the compound `COc1ccccc1CN(CC1CCNCC1)C(=O)Nc1c(C)noc1C` [CBK049739], the viability at 28.5 h, 10 µM was found to be 94.7%.

Regarding `CCOC(=O)c1ccccc1NC(=O)N(Cc1ccc2ccccc2c1)CC1CCNCC1` [CBK049769], the viability at 28.5 h, 10 µM is 98.3%.

For the compound `Cc1ccc(NC(=O)N(Cc2ccc3ccccc3c2)CC2CCNCC2)cc1[N+](=O)[O-]` [CBK049771], the viability at 28.5 h, 10 µM worked out at 100%.

Turning to `O=C(NCCc1ccccc1)N(Cc1ccc(-c2ccccc2)cc1)CC1CCNCC1` [CBK049792], the viability at 28.5 h, 10 µM was 106%.

Consider `COc1ccc(F)c(CN(CC2CCNCC2)C(=O)Nc2c(F)cccc2F)c1` [CBK049804], for which the viability at 28.5 h, 10 µM was 110%.

Turning to `COc1ccc(F)c(CN(CC2CCNCC2)C(=O)Nc2ccccc2C(F)(F)F)c1` [CBK049805], the viability at 28.5 h, 10 µM was found to be 96.9%.

As to `COc1ccc(F)c(CN(CC2CCNCC2)C(=O)Nc2c(C)noc2C)c1` [CBK049811], the viability at 28.5 h, 10 µM came out at 112%.

For `O=C(O)c1[nH]c2ccccc2c1NS(=O)(=O)c1ccc(Br)cc1` [CBK049878], the viability at 28.5 h, 10 µM stood at 61.1%.

As to `Cc1ccc(S(=O)(=O)Nc2c(C(=O)O)[nH]c3ccccc23)cc1` [CBK049880], the viability at 28.5 h, 10 µM turned out to be 72.6%.

As for `O=C(O)c1[nH]c2ccccc2c1NS(=O)(=O)c1cc(F)c(Br)cc1F` [CBK049885], the viability at 28.5 h, 10 µM amounted to 62.8%.

`O=C(O)c1[nH]c2ccccc2c1NS(=O)(=O)c1cc(Cl)sc1Cl` [CBK049886]: the viability at 28.5 h, 10 µM amounted to 67.5%.

Regarding `COc1ccc(Br)cc1S(=O)(=O)Nc1c(C(=O)O)[nH]c2ccccc12` [CBK049887], the viability at 28.5 h, 10 µM came out at 97.5%.

Regarding `CC(=O)Nc1ccc(S(=O)(=O)Nc2nnc(CC(C)(C)C)s2)cc1` [CBK049910], the viability at 28.5 h, 10 µM came to 87.7%.

As for `COc1ccc(OC)c(-c2cc(C(=O)O)c(C)s2)c1` [CBK049922], the viability at 28.5 h, 10 µM came to 96.5%.

`O=C(CC1SC(NC2CC3C=CC2C3)=NC1=O)NCc1ccccc1` (stereo not drawn) [CBK049940]: the viability at 28.5 h, 10 µM came out at 87.1%.

Consider `O=S(=O)(Cc1cc(Cl)ccc1C(F)(F)F)c1cc2c(N3CCNCC3)nccc2s1` [CBK049960C], for which the viability at 28.5 h, 10 µM was 115%.

For `COC(=O)c1sc2ncccc2c1NS(=O)(=O)c1ccc(C(F)(F)F)cc1[N+](=O)[O-]` [CBK049969], the viability at 28.5 h, 10 µM was 95.4%.

For the compound `COC(=O)c1sc2ncccc2c1NS(=O)(=O)c1cc(Br)ccc1OC` [CBK049971], the viability at 28.5 h, 10 µM was determined as 91.9%.

For the compound `Cc1ccc(S(=O)(=O)Nc2c(C(=O)O)sc3ncccc23)cc1[N+](=O)[O-]` [CBK049983], the viability at 28.5 h, 10 µM was 91.6%.

As to `COc1ccc(S(=O)(=O)Nc2c(C(=O)N3CCOCC3)sc3ncccc23)cc1OC` [CBK050005], the viability at 28.5 h, 10 µM came out at 108%.

As to `CCc1nnc(NS(=O)(=O)c2ccc(NC(=S)Nc3ccc(F)cc3)cc2)s1` [CBK050037], the viability at 28.5 h, 10 µM came to 89.7%.

Take `CN1CCN(C(=O)c2[nH]c3ccccc3c2NS(=O)(=O)/C=C/c2ccccc2)CC1` [CBK050047]: the viability at 28.5 h, 10 µM turned out to be 106%.

For `Cc1noc(C)c1S(=O)(=O)Nc1c(C(=O)N2CCN(C)CC2)[nH]c2ccccc12` [CBK050057], the viability at 28.5 h, 10 µM was 98.9%.

Turning to `Cc1ccc(S(=O)(=O)Nc2c(C(=O)N3CCOCC3)[nH]c3ccccc23)cc1` [CBK050066], the viability at 28.5 h, 10 µM was 88.7%.

A word on the viability: it is a read-out of living cells in per cent, often relative to untreated cells.
